The values below come from ChEMBL document CHEMBL1142202, “Putative role of beta-1,3 glucans in Candida albicans biofilm resistance” (2007).

Converted amounts (≈) assume the structure as drawn. The source made the active and inactive calls. No cut-off for these calls is given here. A value given as a limit tells only on which side of the number the result lay.

For assay [1], the system named is Candida albicans. Briefly: Increase in antifungal activity against Candida albicans K1 biofilm cells assessed as 50 percent reduction of optical density in presence of beta 1,3 glucanase after 48 hrs by XTT assay. Format: functional.
Assay [2] has as its system Candida albicans. Description: Increase in antifungal activity against Candida albicans K1 biofilm cells assessed as 80 percent reduction of optical density in presence of beta 1,3 glucanase after 48 hrs by XTT assay. Type of assay: functional. (Tetrazolium dyes change colour on reduction, which living cells bring about.)
Assay [3] relates to Candida albicans. Description: Antifungal activity against planktonic Candida albicans K1. Type of assay: functional.
For assay [4], the system named is Candida albicans. Briefly: Effect on biofilm cell viability of Candida albicans K1 at 1000 ug/ml. Format: functional, organism-based.
In assay [5] the test system is Candida albicans. Description: Antifungal activity against planktonic Candida albicans K1 in presence of biofilm material after 48 hrs by CLSI M27 A micro-broth method. Format: functional. The conditions noted are these: K1, 48 h.
Assay [6] concerns Candida albicans. Briefly: Antifungal activity against planktonic Candida albicans K1 in presence of laminarin after 48 hrs by CLSI M27 A micro-broth method. The following applies: K1, 48 h. Format: functional.
Assay [7] concerns Candida albicans. Description: Increase in drug binding to Candida albicans K1 biofilm cell walls, supernatant and matrix as compared to respective planktonic controls. Type of assay: functional, organism-based.
For assay [8], the system named is Candida albicans. Description: Antifungal activity against Candida albicans K1 biofilms in in-vivo rat catheter model in presence of beta 1,3-glucanase. Type of assay: functional, organism-based.

Regarding `C[C@@H]1[C@H](O)[C@@H](C)/C=C/C=C/C=C/C=C/C=C/C=C/C=C/[C@H](O[C@@H]2O[C@H](C)[C@@H](O)[C@H](N)[C@@H]2O)C[C@@H]2O[C@](O)(C[C@@H](O)C[C@@H](O)[C@H](O)CC[C@@H](O)C[C@@H](O)CC(=O)O[C@H]1C)C[C@H](O)[C@H]2C(=O)O` [AMPHOTERICIN B], the “fractional inhibitory concentration index (FICI)” value was found to be 0.2 in the assay with Candida albicans [1] and 0.21 with Candida albicans [2].

Consider `OC(Cn1cncn1)(Cn1cncn1)c1ccc(F)cc1F` [FLUCONAZOLE], for which the MIC in the assay with Candida albicans [3] is 0.5 µg/mL (≈ 1.63 µM); in the assay on Candida albicans [5] it was over 128 µg/mL; in the assay with Candida albicans [6] it was over 128 µg/mL. The outcome with Candida albicans [4] was inactive. In addition, the “fractional inhibitory concentration index (FICI)” value in the assay with Candida albicans [1] is recorded as 0.31; in the assay on Candida albicans [2], 0.1. The result in the assay on Candida albicans [7] and in the assay on Candida albicans [8] was Active.
